# Test results: BindingDB's records for patent US12552793 (Kangbaida (Sichuan) Biotechnology Co., 2026)
# Target: DNA-dependent protein kinase catalytic subunit (Homo sapiens, UniProt P78527)
# Experiment: Inhibition of DNA-PK Kinase
# Protocol: IC50 was calculated using GraphPad Prism 8.
# Sequence of DNA-dependent protein kinase catalytic subunit (P78527 whole entry): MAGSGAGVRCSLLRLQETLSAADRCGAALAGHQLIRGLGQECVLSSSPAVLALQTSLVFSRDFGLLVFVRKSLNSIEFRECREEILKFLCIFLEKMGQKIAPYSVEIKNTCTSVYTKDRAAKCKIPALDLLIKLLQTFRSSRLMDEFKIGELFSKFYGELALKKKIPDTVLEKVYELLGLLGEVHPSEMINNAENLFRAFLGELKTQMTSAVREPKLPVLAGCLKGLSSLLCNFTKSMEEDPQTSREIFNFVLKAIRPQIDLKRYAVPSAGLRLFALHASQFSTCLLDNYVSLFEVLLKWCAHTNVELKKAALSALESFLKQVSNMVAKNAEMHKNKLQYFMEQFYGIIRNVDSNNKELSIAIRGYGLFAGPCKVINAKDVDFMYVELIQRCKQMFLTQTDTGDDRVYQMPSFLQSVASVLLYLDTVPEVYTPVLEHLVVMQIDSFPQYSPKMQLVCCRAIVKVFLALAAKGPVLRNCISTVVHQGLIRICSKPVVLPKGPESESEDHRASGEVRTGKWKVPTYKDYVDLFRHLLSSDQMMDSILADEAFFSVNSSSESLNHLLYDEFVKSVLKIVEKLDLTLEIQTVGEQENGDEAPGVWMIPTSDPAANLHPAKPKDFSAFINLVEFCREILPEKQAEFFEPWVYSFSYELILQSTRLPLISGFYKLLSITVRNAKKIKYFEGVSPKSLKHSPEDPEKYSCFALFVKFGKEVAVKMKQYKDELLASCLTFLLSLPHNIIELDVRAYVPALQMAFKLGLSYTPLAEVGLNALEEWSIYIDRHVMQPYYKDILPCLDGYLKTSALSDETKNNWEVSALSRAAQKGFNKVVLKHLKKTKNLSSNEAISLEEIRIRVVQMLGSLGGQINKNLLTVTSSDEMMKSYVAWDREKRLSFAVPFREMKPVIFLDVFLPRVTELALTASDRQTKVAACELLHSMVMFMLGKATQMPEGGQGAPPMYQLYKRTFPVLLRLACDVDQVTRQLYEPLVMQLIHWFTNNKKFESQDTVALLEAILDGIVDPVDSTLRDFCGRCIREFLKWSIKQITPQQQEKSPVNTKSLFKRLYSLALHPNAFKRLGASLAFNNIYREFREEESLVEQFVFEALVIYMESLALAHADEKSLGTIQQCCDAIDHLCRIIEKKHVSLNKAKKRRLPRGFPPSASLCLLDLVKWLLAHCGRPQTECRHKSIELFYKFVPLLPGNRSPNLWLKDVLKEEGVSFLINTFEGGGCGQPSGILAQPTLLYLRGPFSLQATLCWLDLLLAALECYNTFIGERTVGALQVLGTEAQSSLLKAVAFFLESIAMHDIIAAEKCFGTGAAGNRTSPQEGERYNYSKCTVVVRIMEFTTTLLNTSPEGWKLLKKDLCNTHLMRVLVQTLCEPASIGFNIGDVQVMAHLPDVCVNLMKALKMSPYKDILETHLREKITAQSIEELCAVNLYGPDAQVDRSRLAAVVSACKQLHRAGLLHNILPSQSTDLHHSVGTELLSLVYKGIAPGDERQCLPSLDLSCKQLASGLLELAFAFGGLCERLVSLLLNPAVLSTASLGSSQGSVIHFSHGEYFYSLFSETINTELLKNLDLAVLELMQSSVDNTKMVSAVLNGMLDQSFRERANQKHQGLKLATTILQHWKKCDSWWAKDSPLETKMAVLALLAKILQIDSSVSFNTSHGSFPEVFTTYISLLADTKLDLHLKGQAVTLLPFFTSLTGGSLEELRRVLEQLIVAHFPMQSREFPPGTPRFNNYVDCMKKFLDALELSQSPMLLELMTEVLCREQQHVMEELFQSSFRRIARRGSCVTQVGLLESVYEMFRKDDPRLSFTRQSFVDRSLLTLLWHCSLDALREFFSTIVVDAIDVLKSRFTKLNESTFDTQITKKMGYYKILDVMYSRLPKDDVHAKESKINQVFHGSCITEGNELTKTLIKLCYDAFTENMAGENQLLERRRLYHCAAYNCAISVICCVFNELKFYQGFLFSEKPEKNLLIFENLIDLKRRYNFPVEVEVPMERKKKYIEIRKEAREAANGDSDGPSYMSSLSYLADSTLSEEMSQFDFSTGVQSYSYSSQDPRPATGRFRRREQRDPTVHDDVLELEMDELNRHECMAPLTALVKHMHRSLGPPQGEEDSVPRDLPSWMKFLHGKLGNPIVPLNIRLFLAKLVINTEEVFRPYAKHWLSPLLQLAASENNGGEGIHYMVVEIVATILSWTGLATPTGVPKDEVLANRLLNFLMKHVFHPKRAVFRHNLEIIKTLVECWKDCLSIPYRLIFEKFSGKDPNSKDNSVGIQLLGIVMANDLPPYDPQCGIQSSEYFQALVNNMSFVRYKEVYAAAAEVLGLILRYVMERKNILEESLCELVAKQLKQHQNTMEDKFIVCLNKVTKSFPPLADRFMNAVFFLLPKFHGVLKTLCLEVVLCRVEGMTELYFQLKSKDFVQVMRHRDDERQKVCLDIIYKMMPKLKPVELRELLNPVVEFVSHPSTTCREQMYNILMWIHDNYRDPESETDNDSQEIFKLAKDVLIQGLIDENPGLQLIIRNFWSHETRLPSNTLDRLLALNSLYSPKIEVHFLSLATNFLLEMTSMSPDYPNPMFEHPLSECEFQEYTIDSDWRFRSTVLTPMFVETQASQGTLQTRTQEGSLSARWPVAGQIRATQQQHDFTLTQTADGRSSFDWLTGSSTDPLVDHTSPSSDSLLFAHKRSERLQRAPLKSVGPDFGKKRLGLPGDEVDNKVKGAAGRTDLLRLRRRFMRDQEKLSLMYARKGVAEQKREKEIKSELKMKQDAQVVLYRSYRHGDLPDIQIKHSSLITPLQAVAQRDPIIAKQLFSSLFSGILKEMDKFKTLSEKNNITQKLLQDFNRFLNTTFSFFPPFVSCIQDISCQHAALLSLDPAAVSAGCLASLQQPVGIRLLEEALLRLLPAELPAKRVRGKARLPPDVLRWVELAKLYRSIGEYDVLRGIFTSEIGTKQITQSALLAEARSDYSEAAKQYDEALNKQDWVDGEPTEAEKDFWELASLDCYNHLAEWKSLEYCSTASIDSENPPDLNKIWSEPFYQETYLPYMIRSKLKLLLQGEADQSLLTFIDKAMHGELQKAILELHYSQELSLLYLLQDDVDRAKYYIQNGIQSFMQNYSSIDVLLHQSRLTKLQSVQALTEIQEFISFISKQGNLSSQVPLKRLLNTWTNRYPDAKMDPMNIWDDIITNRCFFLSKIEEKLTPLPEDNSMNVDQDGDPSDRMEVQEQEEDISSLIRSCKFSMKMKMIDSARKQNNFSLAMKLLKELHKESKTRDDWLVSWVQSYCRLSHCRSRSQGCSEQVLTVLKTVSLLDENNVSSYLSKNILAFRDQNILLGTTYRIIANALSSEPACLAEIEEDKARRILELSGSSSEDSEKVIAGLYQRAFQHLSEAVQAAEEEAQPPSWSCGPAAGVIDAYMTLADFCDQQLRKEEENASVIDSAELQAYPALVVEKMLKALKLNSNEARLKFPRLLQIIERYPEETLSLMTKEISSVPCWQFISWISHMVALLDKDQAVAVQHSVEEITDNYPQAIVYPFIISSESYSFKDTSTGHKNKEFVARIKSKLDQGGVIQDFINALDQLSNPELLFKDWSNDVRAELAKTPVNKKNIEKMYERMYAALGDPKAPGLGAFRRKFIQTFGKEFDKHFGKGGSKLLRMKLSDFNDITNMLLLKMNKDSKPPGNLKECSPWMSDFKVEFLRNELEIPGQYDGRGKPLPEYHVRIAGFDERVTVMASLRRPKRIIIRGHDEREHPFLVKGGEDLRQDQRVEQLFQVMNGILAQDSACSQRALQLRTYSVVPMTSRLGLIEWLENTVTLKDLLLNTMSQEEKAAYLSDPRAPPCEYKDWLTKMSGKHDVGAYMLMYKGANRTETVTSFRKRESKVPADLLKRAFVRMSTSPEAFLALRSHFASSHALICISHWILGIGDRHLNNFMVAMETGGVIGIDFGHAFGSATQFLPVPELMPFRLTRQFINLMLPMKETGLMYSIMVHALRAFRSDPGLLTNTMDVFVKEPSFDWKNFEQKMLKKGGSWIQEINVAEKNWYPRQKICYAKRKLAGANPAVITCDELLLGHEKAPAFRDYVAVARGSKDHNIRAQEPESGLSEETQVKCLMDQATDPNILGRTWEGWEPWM
row,SMILES,IC50
1,"Cc1cc2ncnn2cc1Nc1ncc2c(n1)n(C1C3CC4CC1CC(O)(C4)C3)c(=O)n2C (centres undefined) [US12552793, Compound 16-1]",0.52 nM
2,"Cc1cc2ncnn2cc1Nc1ncc2c(n1)n(C1C3CC4CC1CC(O)(C4)C3)c(=O)n2C (centres undefined) [US12552793, Compound 16-2]",2.49 nM
3,"Cc1cc(C(N)=O)c(F)cc1Nc1ncc2c(n1)n(C13CC4CC(C1)C(O)C(C4)C3)c(=O)n2C (centres undefined) [US12552793, Compound 17-1]",0.01 nM
4,"Cc1cc(C(N)=O)c(F)cc1Nc1ncc2c(n1)n(C13CC4CC(C1)C(O)C(C4)C3)c(=O)n2C (centres undefined) [US12552793, Compound 17-2]",2.2 nM
5,"[2H]C1(O)C2CC3CC1CC(n1c(=O)n(C)c4cnc(Nc5cn6ncnc6cc5C)nc41)(C3)C2 (centres undefined) [US12552793, Compound 20-1]",0.03 nM
6,"[2H]C1(O)C2CC3CC1CC(n1c(=O)n(C)c4cnc(Nc5cn6ncnc6cc5C)nc41)(C3)C2 (centres undefined) [US12552793, Compound 20-2]",1.1 nM
7,"[2H]C1(O)C2CC3CC1CC(n1c(=O)n(C)c4cnc(Nc5cc(F)c(C(N)=O)cc5C)nc41)(C3)C2 (centres undefined) [US12552793, Compound 23-1]",2.84 nM
8,"[2H]C1(O)C2CC3CC1CC(n1c(=O)n(C)c4cnc(Nc5cc(F)c(C(N)=O)cc5C)nc41)(C3)C2 (centres undefined) [US12552793, Compound 23-2]",0.85 nM
9,"COC1(OC)C2CC3CC1CC(n1c(=O)n(C)c4cnc(Nc5cc(F)c(C(N)=O)cc5C)nc41)(C3)C2 [US12552793, Compound 26]",0.01 nM
